Measurements from patent US20250101041A1, “POSITIVE ALLOSTERIC MODULATORS OF THE MUSCARINIC ACETYLCHOLINE RECEPTOR M4” (Vanderbilt University, priority 2022, published 2025).

Biological target: T1, human mAChR M4 (Homo sapiens, UniProt P08173)
T1 construct: expressed in transfected cells; host or cells: CHO-K1 (American Type Culture Collection), stably expressing hM4 and Gqi5
T1 sequence (P08173 1-479): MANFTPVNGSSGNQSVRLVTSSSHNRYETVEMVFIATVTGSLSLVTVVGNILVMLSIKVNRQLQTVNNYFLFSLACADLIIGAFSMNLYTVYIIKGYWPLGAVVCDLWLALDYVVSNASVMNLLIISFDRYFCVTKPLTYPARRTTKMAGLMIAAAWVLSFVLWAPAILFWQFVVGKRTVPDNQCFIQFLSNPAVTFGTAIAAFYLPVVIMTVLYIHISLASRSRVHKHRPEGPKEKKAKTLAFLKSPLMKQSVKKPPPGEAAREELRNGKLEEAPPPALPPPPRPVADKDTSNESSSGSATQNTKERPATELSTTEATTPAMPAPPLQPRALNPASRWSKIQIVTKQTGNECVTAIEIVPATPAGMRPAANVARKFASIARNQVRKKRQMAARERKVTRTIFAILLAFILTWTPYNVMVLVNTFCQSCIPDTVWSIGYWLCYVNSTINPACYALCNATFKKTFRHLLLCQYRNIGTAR
Experiment: mAChR M4 cell-based functional assay: calcium mobilization (Fluo-4, FDSS), potentiation of EC20 acetylcholine response in hM4-Gqi5 CHO-K1 cells
Conditions: human M4; for Emax at 30 µM: CHO-K1, % ACh maximum at 30 μM; for EC50: potentiation of EC20 acetylcholine response, calcium mobilization
How it was run: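 Readout is the fluorescence-ratio rise at 1 Hz on FDSS, with PAM activity taken as concentration-dependent enhancement of the EC20 acetylcholine response, fitted four-parameter for EC50/Emax. hM4-Gqi5 CHO-K1 cells carried Fluo-4 AM dye; test compounds (11 points, 1:3) preceded EC20 acetylcholine additions at 144 s and 230 s.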

Row | SMILES | Emax at 30 µM [%] | EC50 [nM]
1 | Cc1cc(=O)n2nc(N3CCc4ncc(-c5cnccn5)cc4C3)c(C)cc2n1 [Compound 1-260, 2,8-dimethyl-7-(3-(pyrazin-2-yl)-7,8-dihydro-1,6-naphthyridin-6(5H)-yl)-4H-pyrimido[1,2-b]pyridazin-4-one] | 83 | 97
2 | COCc1cc(=O)n2nc(N3CCc4ncc(-c5cnccn5)cc4C3)c(C)c(C)c2n1 [Compound 1-261, 2-(methoxymethyl)-8,9-dimethyl-7-(3-(pyrazin-2-yl)-7,8-dihydro-1,6-naphthyridin-6(5H)-yl)-4H-pyrimido[1,2-b]pyridazin-4-one] | 94 | 20
3 | COCc1cc(=O)n2nc(N3CCc4ncc(-c5cnc(OC)cc5C)cc4C3)c(C)c(C)c2n1 [Compound 1-262, 7-(3-(6-methoxy-4-methylpyridin-3-yl)-7,8-dihydro-1,6-naphthyridin-6(5H)-yl)-2-(methoxymethyl)-8,9-dimethyl-4H-pyrimido[1,2-b]pyridazin-4-one] | 99 | 1750
4 | COCc1cc(=O)n2nc(N3CCc4ncc(-c5cnn(C6CC6)c5)cc4C3)c(C)c(C)c2n1 [Compound 1-263, 7-(3-(1-cyclopropyl-1H-pyrazol-4-yl)-7,8-dihydro-1,6-naphthyridin-6(5H)-yl)-2-(methoxymethyl)-8,9-dimethyl-4H-pyrimido[1,2-b]pyridazin-4-one] | 86 | 96
5 | Cc1cc(F)ccc1-c1cnc2c(c1)CN(c1nn3c(=O)ccnc3c(C)c1C)CC2 [Compound 1-264, 7-(3-(4-fluoro-2-methylphenyl)-7,8-dihydro-1,6-naphthyridin-6(5H)-yl)-8,9-dimethyl-4H-pyrimido[1,2-b]pyridazin-4-one] | 98 | 222
6 | Cc1c(N2CCc3ncc(-c4ccccc4OC(F)(F)F)cc3C2)nn2c(=O)ccnc2c1C [Compound 1-265, 8,9-dimethyl-7-(3-(2-(trifluoromethoxy)phenyl)-7,8-dihydro-1,6-naphthyridin-6(5H)-yl)-4H-pyrimido[1,2-b] pyridazin-4-one] | 61 | 929
7 | Cc1c(N2CCc3ncc(-c4ccccc4C(F)(F)F)cc3C2)nn2c(=O)ccnc2c1C [Compound 1-266, 8,9-dimethyl-7-(3-(2-(trifluoromethyl)phenyl)-7,8-dihydro-1,6-naphthyridin-6(5H)-yl)-4H-pyrimido[1,2-b] pyridazin-4-one] | 81 | 621

Next, values leading:

Row | Emax at 30 µM [%] | EC50 [nM] | SMILES
8 | 89 | 183 | Cc1c(N2CCc3ncc(-c4ccccc4Cl)cc3C2)nn2c(=O)ccnc2c1C [Compound 1-267, 7-(3-(2-chlorophenyl)-7,8-dihydro-1,6-naphthyridin-6(5H)-yl)-8,9-dimethyl-4H-pyrimido[1,2-b]pyridazin-4-one]
9 | 83 | 230 | Cc1c(N2CCc3ncc(-c4cc(F)ncc4F)cc3C2)nn2c(=O)ccnc2c1C [Compound 1-268, 7-(3-(2,5-difluoropyridin-4-yl)-7,8-dihydro-1,6-naphthyridin-6(5H)-yl)-8,9-dimethyl-4H-pyrimido[1,2-b]pyridazin-4-one]
10 | 88 | 211 | COc1cnccc1-c1cnc2c(c1)CN(c1nn3c(=O)ccnc3c(C)c1C)CC2 [Compound 1-269, 7-(3-(3-methoxypyridin-4-yl)-7,8-dihydro-1,6-naphthyridin-6(5H)-yl)-8,9-dimethyl-4H-pyrimido[1,2-b]pyridazin-4-one]
11 | 95 | 33 | COCc1c(N2CCc3ncc(C(F)(F)F)cc3C2)nn2c(=O)ccnc2c1C [Compound 1-270, 8-(methoxymethyl)-9-methyl-7-(3-(trifluoromethyl)-7,8-dihydro-1,6-naphthyridin-6(5H)-yl)-4H-pyrimido[1,2-b]pyridazin-4-one]
12 | 87 | 70 | COCc1c(N2CCc3ncc(-c4ccc(C)nc4)cc3C2)nn2c(=O)ccnc2c1C [Compound 1-271, 8-(methoxymethyl)-9-methyl-7-(3-(6-methylpyridin-3-yl)-7,8-dihydro-1,6-naphthyridin-6(5H)-yl)-4H-pyrimido[1,2-b] pyridazin-4-one]
